Measured values: patent US10865216B2, “Tricyclic Gyrase inhibitors” (MERCK SHARP & DOHME CORP., priority 2012, dated 2020)
Values after ≈ are worked out from the molar mass of the structure shown. Like-named read-outs stand apart in the source and are kept apart here.

Legend:
[1] = tested on: S. aureus ATCC 13709; test: MIC, S. aureus ATCC 13709; assay type: cell-based; conditions: for MIC: Staphylococcus aureus
[2] = tested on: E. coli ATCC 25922; test: MIC, E. coli ATCC 25922; assay type: cell-based; conditions: for MIC: Escherichia coli
[3] = S. aureus, Alamar Blue read after overnight incubation at 35° C.
[4] = E. coli, Alamar Blue read after overnight incubation at 35° C.
[5] = ATCC13709, S. aureus, Alamar Blue read after overnight incubation at 35° C., read-out: MIC Sa
[6] = ATCC25922, E. coli, Alamar Blue read after overnight incubation at 35° C., read-out: MIC Ec

Row | SMILES | MIC Sa [1, 3] | MIC Ec [2, 4] | MIC [1, 5] | MIC [2, 6] | further results
1 | CNc1cc(F)cc2c1[nH]c1nc(Oc3cncnc3)nc(N3CC4CCNC4C3)c12 (stereo not drawn) [Compound 4.020] | ≤0.5 µg/mL | ≤0.5 µg/mL | – | – | –
2 | CNc1cc(F)cc2c1[nH]c1nc(Oc3cnc4ccnn4c3)nc(N3C[C@H]4CCN[C@H]4C3)c12 [Compound 10.13] | – | – | – | – | MIC Sa ([1]; Table 18, Sa): ≤ 0.5 µg/mL; MIC Ec ([2]; Table 18, Ec): ≤ 0.5 µg/mL
3 | CNc1cc(F)cc2c1[nH]c1nc(Oc3cnc(C)nc3)nc(N3CC(N)C(C(=O)N4CCOCC4)C3)c12 (stereo not drawn) [drawing 1827] | – | – | – | – | MIC ([1]; ATCC13709, Table 16, new R4 substituents, read-out: SA MIC): 1 µg/mL (≈ 1.92 µM); MIC ([2]; ATCC25922, Table 16, new R4 substituents, EC8 not defined, read-out: EC8 MIC): 16 µg/mL (≈ 30.7 µM)
4 | COc1cccc2c1[nH]c1nc(Oc3cncnc3)nc(N3CC4C(N)C4C3)c12 (stereo not drawn) [Compound 2.13] | 2 µg/mL (≈ 5.14 µM) | 64 µg/mL (≈ 164 µM) | – | – | –
5 | CNc1cc(F)cc2c1[nH]c1nc(Oc3cnc(C)nc3)nc(N3CCC4(CC3)NC(=O)NC4=O)c12 [Compound 4.107] | >16 µg/mL | >16 µg/mL | – | – | –
6 | CNc1nccc2c1[nH]c1nc(Oc3cncnc3)nc(N3CC[C@@H](N)C3)c12 [Compound 7.02] | – | – | > 64 µg/mL | 32 µg/mL (≈ 84.8 µM) | –
7 | CNc1cccc2c1[nH]c1nc(Oc3cnc4cccnc4c3)cc(N3CC(N)C4(CC4)C3)c12 (stereo not drawn) [Compound 3.52] | – | – | ≤ 0.5 µg/mL | ≤ 0.5 µg/mL | –
8 | CNc1cc(F)cc2c1[nH]c1nc(Oc3cnc(N)nc3)nc(N3CC(NC(=O)CN)C4(CC4)C3)c12 (stereo not drawn) [Compound 4.182] | 2 µg/mL (≈ 4.06 µM) | 16 µg/mL (≈ 32.5 µM) | – | – | –
9 | CNc1cc(F)cc2c1[nH]c1nc(Oc3cncc(-c4nnnn4C)c3)nc(N3CC4C[C@@H](N)C4C3)c12 (stereo partly drawn) [Compound 4.171] | ≤0.5 µg/mL | 4 µg/mL (≈ 7.98 µM) | – | – | –
10 | CNc1cc(F)cc2c1[nH]c1nc(Oc3cnc(CCO)nc3)nc(N3CC4C[C@@H](N)C4C3)c12 (stereo partly drawn) [Compound 4.429] | – | – | ≤ 0.5 µg/mL | 1 µg/mL (≈ 2.15 µM) | –
11 | CNc1cccc2c1[nH]c1nc(Sc3cnc4cccnc4c3)nc(N3CCN(C(=O)C4CCCO4)CC3)c12 (stereo not drawn) [Compound 1.69] | – | – | ≤ 0.5 µg/mL | 8 µg/mL (≈ 14.8 µM) | –
12 | CNc1cccc2c1[nH]c1nc(Sc3cnc4nccnc4c3)nc(N3CC[C@H](N)C3)c12 [Compound 1.15] | – | – | 1 µg/mL (≈ 2.25 µM) | 2 µg/mL (≈ 4.51 µM) | –
13 | CNc1cc(F)cc2c1[nH]c1nc(Oc3cnc(C)nc3)nc(N3CC(N)C4(CC4)C3)c12 (stereo not drawn) [Compound 4.068] | ≤0.5 µg/mL | ≤0.5 µg/mL | – | – | –
14 | CNc1cc(F)c2c3c1[nH]c1nc(Oc4cnc(C)nc4)nc(c13)-c1ccc(Cl)cc1NC2 | – | – | – | – | SA MIC ([1]; Table 12, Z is C and connected to R4): ≤ 0.5 µg/mL; EC8 MIC ([2]; Table 12, Z is C and connected to R4, EC8 not defined): 4 µg/mL
15 | CNc1cccc2c1[nH]c1nc(Oc3cnc4c(c3)ncn4C)cc(N3CC4C(N)C4C3)c12 (stereo not drawn) [Compound 3.36] | – | – | ≤ 0.5 µg/mL | 2 µg/mL (≈ 4.54 µM) | –
16 | CNc1cc(F)cc2c1[nH]c1nc(Oc3cnc(C(C)(C)O)nc3)nc(N3CC4(CC[C@H]4N)C3)c12 [Compound 4.431] | – | – | ≤ 0.5 µg/mL | ≤ 0.5 µg/mL | –
17 | CNc1cc(F)cc2c1[nH]c1nc(Oc3cnc(SC)nc3)nc(N3CC4C(CN)C4C3)c12 (stereo not drawn) [Compound 4.197] | ≤0.5 µg/mL | ≤0.5 µg/mL | – | – | –
18 | CNc1cc(F)cc2c1[nH]c1nc(Oc3ccc4ncsc4c3)nc(N3CC4CCC(N)C4C3)c12 (stereo not drawn) [Compound 4.320] | ≤0.5 µg/mL | 1 µg/mL (≈ 2.04 µM) | – | – | –
19 | CNc1cc(F)cc2c1[nH]c1nc(Oc3cnc4c(Cl)cnn4c3)nc(N3C[C@H]4C[C@@H]3C[C@H]4N)c12 [Compound 10.23] | – | – | – | – | MIC Sa ([1]; Table 18, Sa): ≤ 0.5 µg/mL; MIC Ec ([2]; Table 18, Ec): ≤ 0.5 µg/mL
20 | CNc1cccc2c1[nH]c1nc(Oc3cncnc3)cc(N3CC4CC4(N)C3)c12 (stereo not drawn) [Compound 3.1] | – | – | 1 µg/mL (≈ 2.58 µM) | 4 µg/mL (≈ 10.3 µM) | –
21 | CNc1cccc2c1[nH]c1nc(Oc3cnc(C)nc3)nc(Oc3cnc(C)nc3)c12 [Compound 8.2] | – | – | 1 µg/mL (≈ 2.41 µM) | > 32 µg/mL | –
22 | CNc1cc(F)cc2c1[nH]c1nc(Oc3cnc(-c4nn[nH]n4)nc3)nc(N3CC[C@@H](N)C3)c12 [Compound 4.224] | 1 µg/mL (≈ 2.16 µM) | >16 µg/mL | – | – | –
23 | CNc1cccc2c1[nH]c1nc(Oc3cncnc3)cc(N3C/C(=N\OC)[C@@H](N)C3)c12 [Compound 3.62] | – | – | ≤ 0.5 µg/mL | 8 µg/mL (≈ 19.1 µM) | –
24 | CNc1cc(F)cc2c1[nH]c1nc(Oc3cnc(C)nc3)nc(N3CCCC(N)CC3)c12 (stereo not drawn) [Compound 4.071] | ≤0.5 µg/mL | 2 µg/mL (≈ 4.58 µM) | – | – | –

Row | SMILES | MIC Sa [1, 3] | MIC Ec [2, 4] | MIC [1, 5] | MIC [2, 6] | further results
25 | CNc1cc(F)cc2c1[nH]c1nc(Oc3cnc(N4CCC4)nc3)nc(N3CC4C(N)C4C3)c12 (stereo not drawn) [Compound 4.296] | ≤0.5 µg/mL | ≤0.5 µg/mL | – | – | –
26 | CNc1cc(F)cc2c1[nH]c1nc(Oc3cnc(C)nc3)nc(-c3ccc(Cl)c(N)c3)c12 [Compound 4.432] | – | – | ≤ 0.5 µg/mL | > 16 µg/mL | –
27 | CNc1cccc2c1[nH]c1nc(Oc3cncnc3)cc(N3CC[C@@H](N)C3)c12 [Compound 3.4] | – | – | 0.5 µg/mL (≈ 1.33 µM) | ≤ 0.5 µg/mL | –
28 | CNc1cc(F)cc2c1[nH]c1nc(Oc3cnc(C)nc3)nc(N3CC(CN)C3)c12 [Compound 4.143] | ≤0.5 µg/mL | 2 µg/mL (≈ 4.9 µM) | – | – | –
29 | CCNC(=O)c1cncc(Oc2nc(NCC)c3c(n2)[nH]c2c(NC)cc(F)cc23)c1 [Compound 4.384] | 1 µg/mL (≈ 2.36 µM) | >16 µg/mL | – | – | –
30 | CNc1cc(F)cc2c1[nH]c1nc(Oc3ccc(C#N)nc3)nc(N3CC4CCNC4C3)c12 (stereo not drawn) [Compound 4.330] | ≤0.5 µg/mL | ≤0.5 µg/mL | – | – | –
31 | CNc1cc(F)cc2c1[nH]c1nc(Oc3cnc([C@@H](C)O)nc3)nc(N3CC4(CC[C@H]4N)C3)c12 [Compound 10.59] | – | – | – | – | MIC Sa ([1]; Table 18, Sa): ≤ 0.5 µg/mL; MIC Ec ([2]; Table 18, Ec): ≤ 0.5 µg/mL
32 | CNc1cc(F)cc2c1[nH]c1nc(Oc3cnc(C4CCC4)nc3)nc(N3CC(N)C4(CC4)C3)c12 (stereo not drawn) [Compound 4.287] | ≤0.5 µg/mL | ≤0.5 µg/mL | – | – | –
33 | CNc1ncc(Oc2nc(N3CCC4(CC4N)C3)c3c(n2)[nH]c2c(NC)cc(F)cc23)cn1 (stereo not drawn) [Compound 4.220] | ≤0.5 µg/mL | ≤0.5 µg/mL | – | – | –
34 | CNc1cc(F)cc2c1[nH]c1nc(Oc3cnc(N)nc3)nc(N3CCC(CN)C3)c12 (stereo not drawn) [Compound 4.176] | ≤0.5 µg/mL | 1 µg/mL (≈ 2.36 µM) | – | – | –
35 | CNc1cccc2c1[nH]c1nc(Oc3cncnc3)cc(N3CC4C(C3)C4NCC3CC3)c12 (stereo not drawn) [Compound 3.13] | – | – | ≤ 0.5 µg/mL | 1 µg/mL (≈ 2.26 µM) | –
36 | CNc1cc(F)cc2c1[nH]c1nc(Nc3cnn4ccnc4c3)nc(N3C[C@H]4C[C@@H]3C[C@H]4N)c12 [Compound 10.46] | – | – | – | – | MIC Sa ([1]; Table 18, Sa): ≤ 0.5 µg/mL; MIC Ec ([2]; Table 18, Ec): ≤ 0.5 µg/mL
37 | CNc1cccc2c1[nH]c1nc(Oc3cncc(F)c3)cc(N3CC[C@@H](N)C3)c12 [Compound 3.6] | – | – | 0.5 µg/mL (≈ 1.27 µM) | 1 µg/mL (≈ 2.55 µM) | –
38 | CNc1cc(F)cc2c1[nH]c1nc(Oc3cnc(OC)nc3)nc(N3C[C@H](N)C4(CC4)C3)c12 [Compound 4.433] | – | – | ≤ 0.5 µg/mL | ≤ 0.5 µg/mL | –
39 | Cc1ncc(Oc2nc(N3C[C@H](NC(=O)CN)C4(CC4)C3)c3c(n2)[nH]c2c(N(C)C(=O)CN)cc(F)cc23)cn1 [Compound 4.427] | – | – | > 16 µg/mL | > 16 µg/mL | –
40 | CNc1cc(F)c(F)c2c1[nH]c1nc(Oc3cnc4ccnn4c3)nc(N3C[C@H]4C[C@@H]3C[C@H]4N)c12 [Compound 10.21] | – | – | – | – | MIC Sa ([1]; Table 18, Sa): ≤ 0.5 µg/mL; MIC Ec ([2]; Table 18, Ec): ≤ 0.5 µg/mL
41 | CNc1cc(F)cc2c1[nH]c1nc(Oc3cnc(C4CC4)nc3)nc(C3CCC4(CC3)NC(=O)NC4=O)c12 (stereo not drawn) [Compound 4.252] | >16 µg/mL | >16 µg/mL | – | – | –
42 | CNc1cccc2c1[nH]c1nc(Sc3cnc4ccc[n+]([O-])c4c3)nc(N3CC(O)C3)c12 [Compound 1.17] | – | – | ≤ 0.5 µg/mL | > 64 µg/mL | –
43 | CNc1cc(C)cc2c1[nH]c1nc(Oc3cnc(C)nc3)nc(N3CC4C(N)C4C3)c12 (stereo not drawn) [Compound 6.26] | ≤0.5 µg/mL | 1 µg/mL (≈ 2.4 µM) | – | – | –
44 | CNc1cc(F)cc2c1[nH]c1nc(Nc3cnc4c(c3)nnn4C(C)C)nc(N3C[C@H]4C[C@@H]3C[C@H]4N)c12 [Compound 10.43] | – | – | – | – | MIC Sa ([1]; Table 18, Sa): ≤ 0.5 µg/mL; MIC Ec ([2]; Table 18, Ec): 1 µg/mL (≈ 1.99 µM)
45 | CNc1cccc2c1[nH]c1nc(Oc3cncc(C#N)c3)cc(N3CCC4(CC4N)C3)c12 (stereo not drawn) [Compound 3.40] | – | – | ≤ 0.5 µg/mL | 1 µg/mL (≈ 2.35 µM) | –
46 | CNc1cc(F)cc2c1[nH]c1nc(Oc3cnc(CN)nc3)nc(N3CCC4(CC[C@H]4N)C3)c12 (stereo partly drawn) [Compound 10.105] | – | – | – | – | MIC Sa ([1]; Table 18, Sa): ≤ 0.5 µg/mL; MIC Ec ([2]; Table 18, Ec): 1 µg/mL (≈ 2.16 µM)
47 | CNc1cc(F)c(Cl)c2c1[nH]c1nc(Oc3cnc4ccnn4c3)nc(N3C[C@H]4C[C@@H]3C[C@H]4N)c12 [Compound 10.85] | – | – | – | – | MIC Sa ([1]; Table 18, Sa): ≤ 0.5 µg/mL; MIC Ec ([2]; Table 18, Ec): ≤ 0.5 µg/mL
48 | CNc1cc(F)c(Cl)c2c1[nH]c1nc(Oc3cnc4ccnn4c3)nc(N3C[C@H]4C[C@@H](N)[C@H]4C3)c12 [Compound 10.86] | – | – | – | – | MIC Sa ([1]; Table 18, Sa): ≤ 0.5 µg/mL; MIC Ec ([2]; Table 18, Ec): 0.25 µg/mL (≈ 0.506 µM)
